Molecules are shown by their SMILES. Entries after “also recorded” stand apart in the source; their conditions may differ. Structures can show the parent of a compound that is named as a salt. Where two headings read alike, the source gives them in different places. Bounds are passed on as bounds.

A short description of series [1]: Accelerated closed-vial stability study. Particulars: 40° C., 75% RH. Type of series: physicochemical.
Series [2] is described as follows: Variable-temperature XRPD. Type of series: physicochemical. The note with it: heated up to 100° C. As to the method:
In this application, X-ray powder diffraction (XRPD) data were collected using a BrukerD8 Advance diffractometer; parameters are as follows: Cu radiation; wavelength: 1.54 Å; Current voltage: 40 KV, 40 mA; Scan range: 3˜40° 2θ.

For series [3] the following is noted: 40° C., 75% RH; for Assay (%) / Color / XRPD: open vial.
Experimental: The samples were placed under accelerated open-vial conditions (40° C., 75% RH, and open vial) to assess the stability of both samples.
For series [4] the following is noted: pH 1.2.
Series [5] can be described thus: physchem. Particulars: thermodynamic from solid.
Series [6] in a line: physchem. The note with it: thermodynamic from solid, Instantaneous Solubility.
For series [7] the following is noted: cited from earlier work.
Where [8] appears, read: sealed 5 mL vial in self-sealing bag.
Setting [9] is: pH 1.2, simulated gastric fluid.

A word on the solubility: it is the concentration that dissolves in the medium under given conditions. Usually solubility (thermodynamic) stands for solubility found after equilibrating the solid with the medium. Take `C=CC(=O)Nc1cc(Nc2nccc(-n3cc(CN(C)C)c(-c4ccccc4)n3)n2)c(OC)cc1N1CCOCC1` [Form A, lazertinib mesylate]: the “remains stable for at least (time)” value in series [1] (5 mL vial packed in a self-sealing bag (sealed)) is on record as “at least 1 month”. Moreover, in series [1] (setting [8]), the “change in assay value” was “minimal change; also recorded: no significant changes”; the “color before and after storage” value is listed as “white; also recorded: no significant changes”; the “crystal form before and after storage” value is “remains unchanged; also recorded: no significant changes”. For the same compound, in series [2], the “crystal form on heating (variable-temperature XRPD)” value is on record as “remains unchanged”. The “remains stable for at least (time)” value in series [3] (open) is listed as “at least 21 days”. Also, in series [3] (0 day), the “Assay (%)” value is on record as 98.79%, the Color entry is “white” and the XRPD entry is reported as “Form A”. For the same compound, in series [3] (21 days), the “Assay (%)” value was 98.44%, the Color result is “white” and the XRPD result is “Form A”. Moreover, the “Instantaneous Solubility” value in series [4] was more than 50 mg/mL. In the series “physchem [5]” (setting [9]), the solubility at 4 hrs was more than 60 mg/mL, the solubility at 12 hrs is more than 60 mg/mL and the thermodynamic solubility is more than 60 mg/mL. For the same compound, in “physchem [5]” (pH 4, aqueous buffer), the solubility at 4 hrs was 67.9 mg/mL, the solubility at 12 hrs amounted to 67 mg/mL and the thermodynamic solubility was more than 60 mg/mL. Moreover, in the series “physchem [5]” (water), the solubility at 4 hrs is 70.7 mg/mL, the solubility at 12 hrs came out at 69.4 mg/mL and the solubility (thermodynamic) is more than 60 mg/mL. This compound also returned a solubility in “physchem [6]” (setting [9]) of more than 80 mg/mL. Moreover, in “physchem [6]” (pH 4, aqueous buffer), the solubility is more than 50 mg/mL. In “physchem [6]” (water), this compound showed a solubility of more than 50 mg/mL.

Regarding `C=CC(=O)Nc1cc(Nc2nccc(-n3cc(CN(C)C)c(-c4ccccc4)n3)n2)c(OC)cc1N1CCOCC1` [Form I, lazertinib mono-mesylate, reference compound], in series [3] (0 day), the “Assay (%)” value turned out to be 98.73%, the Color result is reported as “yellow” and the XRPD entry is “Form I”. For the same compound, in series [3] (21 days), the “Assay (%)” value is listed as 70.35%, the Color entry is recorded as “pink” and the XRPD entry is reported as “Form I”. Moreover, in series [3] (open, 21 days), the “change in assay value (in words)” value is reported as “significant decrease” and the “change in color (in words)” value is recorded as “from yellow to pink”. Further, the solubility in series [7] (pH 1.2) was 14.9 mg/mL. Besides, in series [7] (pH 4), the solubility is on record as 20.9 mg/mL.
